Assay results as given in publication PMC8395040 (International Journal of Molecular Sciences, 2021).

Experiments:
HCT116 = assay: Colony formation assay, HCT116; type: cell-based, human; conditions: 5 µM, 14 d
Experimental: HT29, HCT116, H1975 and HEK293 cells were seeded in a 6-well plate (1 × 10^4 cells per well) and incubated overnight in DMEM F12 supplemented with 10% FBS. […] After 72 h, the medium was replaced by fresh medium without stimuli, and cells were incubated for an additional 14 d to permit colony formation. The cells were fixed during 30 min with PFA 4% (v/v), washed and stained for 30 min at RT with a 5% solution of violet crystal for final colony counting. Three independent replicates were performed.

Gli1 mRNA in Smo−/− MEFs = assay: Gli1 mRNA (qRT-PCR) in Smo−/− MEFs; type: cell-based, mouse; conditions: 24 h and/or 48 h
Experimental: HEK293T and Smo^−/−, Ptch^−/− MEFs cells were cultured in DMEM plus 10% FBS, 1% L-glutamine and antibiotics. Transient transfections were performed using DreamFectTM Gold transfection reagent (Oz Biosciences SAS, Marseille, France) following the manufacturer’s instructions and for varying periods of time depending on the experiment (24–72 h). […] Vehicle (DMSO) was used as control.
Total RNA was isolated with Trizol (Invitrogen/Life Technologies, Carlsbad, CA, USA) from Smo^−/− MEFs, Ptch^−/− MEFs or HT29 cells treated for 24 h and/or 48 h with 4s at different concentrations and reverse transcribed with the SensiFAST cDNA Synthesis Kit (Bioline Reagents Limited, London, UK). Quantitative real-time PCR (Q-PCR) analysis of Gli1 and housekeeping (HPRT, TBP, HMBS) mRNA levels was performed on each cDNA sample using the VIIA7 Real Time PCR System employing Assay-on-Demand Reagents (Life Technologies) as previously described. […] Each amplification reaction was performed in triplicate, the average of the three threshold cycles was used to calculate the amount of transcript in the sample (using SDS version 2.3 Software). mRNA quantification was expressed in arbitrary units as the ratio of the sample quantity to the quantity of the calibrator (ΔCt method). […]

HT29 = assay: Cell cycle analysis (PI, flow cytometry), HT29; type: cell-based, human; conditions: 19 µM, 24 h, compared to the control
Experimental: HT29 and HEK293 cells were plated in 6-well plates at a density of 2.0 × 10^5 cells/1.5 mL/well and grown overnight at 37 °C in a 5% CO2 humidified atmosphere. […] Aliquots of cells were collected, pelleted, washed, and fixed with ethanol (70% v/v) for at least 30 min at 4 °C. Cells were resuspended twice in PBS and, after centrifugation and elimination of the supernatant, they were finally resuspended in a PBS solution containing propidium iodide (PI; […], Invitrogen), RNase A ([…], Invitrogen). After a final incubation for 1 h in the dark at 37 °C, the PI signal was measured using a FACS Canto II Flow-cytometer (BD; Mountain View, CA) with a 488 nm excitation laser, captured and FACS DIVA was used as the acquisition software. The percentage of cells in each phase was analysed using the FCS Express v6 software. Two independent biological replicates were performed.

HEK293 [1] = assay: MTT cytotoxicity assay, HEK293 control cells; type: cell-based, human; conditions: for IC50: Homo sapiens, HEK293, MTT, 72 h, non-cancer cell line;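 for all read-outs here: Read-out is formazan absorbance at 570 nm from MTT reduction in 96-well plates, with three independent biological replicates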
[2] = MTT cytotoxicity assay, HEK293 control cells; type: cell-based, human; conditions: human, HEK293 cells; 50 µM, 72 h, MTT;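 note: Read-out is formazan absorbance at 570 nm from MTT reduction in 96-well plates, with three independent biological replicates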
BxPC-3 = assay: MTT cytotoxicity assay, BxPC-3; type: cell-based; conditions: Homo sapiens, 72 h, 0.05–50 µM
Experimental: (§1) Cytotoxicity assays were performed by using the MTT reduction method as described previously. Briefly, cancer cell lines were plated in flat-bottom 96-well plates at a cell concentration of 5 × 10^3 cells/well for the fastest growing lines, such as HEK293 and HT29 cells and 1 × 10^4 cells/well for more slowly growing lines, such as HCT116, H1975, BxPC-3, AsPC-1, B16-F10 and DAOY. Then, cells were incubated with the synthesised compounds at different concentrations (from 0.05 to 50 µM) in 200 µL with 10% FBS in RPMI 1640 or DMEM F12 culture medium at 37 °C for 72 h. Later, 10 µL of MTT were added at a final concentration of 0.5 mg/mL, incubated at 37 °C for 4 h, and then solubilised with 10% sodium dodecyl sulphate (SDS) in 0.1 mM HCl and incubated overnight at 37 °C. Formazan formation was measured at 570 nm in a multiwell plate reader (Cytation 5, Biotek Instruments, Winooski, VT, USA). Three independent biological replicates were performed.

AsPC-1 = assay: MTT cytotoxicity assay, AsPC-1; type: cell-based; conditions: Homo sapiens, ASPC1, 72 h, 0.05–50 µM
Experimental: as §1

HT29 cells = assay: Annexin V-FITC/PI assay, HT29; type: cell-based, human; conditions: for early apoptosis (II): 19 µM, 3 or 12 h, untreated control 2.7%
Experimental: HT29 cells were seeded in a 12-well plate (5 × 10^5 cells per well) and incubated overnight in DMEM F12. […] The cells were collected and then processed for apoptosis analysis using the Annexin-V/PI Alexa Fluor 488 Apoptosis Kit (Invitrogen, Waltham, MA, USA) according to the manufacturer’s instructions. Finally, cells were analysed by flow cytometry (BD; FACS Canto II, Mountain View, CA, USA) and data were processed using the FCS Express v6 software. Three independent replicates were performed.

H1975 = assay: MTT cytotoxicity assay, H1975; type: cell-based; conditions: Homo sapiens, NCI-H1975, 72 h, MTT; for cytotoxicity at 50 µM: read-out: % Cytotoxicity (50 µM) H1975; for IC50: 0.05–50 µM
Experimental: as §1

HEK293 [3] = assay: CFSE proliferation assay, HEK293; type: cell-based, human; conditions: 19 µM, 48 h
Experimental: HT29 and HEK293 cells were resuspended at 1 × 10^6/mL in DMEM F12 without FBS. A 5 mM CFSE stock solution carboxyfluorescein diacetate succinimidyl ester (Cell Proliferation Kit, Life Technologies, Carlsbad, CA, USA) in DMSO was added to a final concentration of 5 µM and incubated at 37 °C for 15 min protected from light. At the end of the incubation period, the cells were immediately washed twice in cold PBS 1X/no-FBS. Cells were washed three times in PBS 1×/10%-FBS and resuspended in the same medium and plated in 12-well plates at a density of 1 × 10^5 cells/200 µL medium and grown overnight at 37 °C in a 5% CO2 humidified atmosphere. […] The cells were collected and then analysed by flow cytometry (BD; FACScanto II, Mountain View, CA, USA) and data were processed using FCS Express v6 software. Two independent biological replicates were performed.

Row | Compound | colony formation HCT116 (HCT116) | GLI1 mRNA levels in Smo−/− MEFs (Gli1 mRNA in Smo−/− MEFs) | decrease in S phase (HT29) | increase of the G1/G0 phase (HT29) | concentration at which effects on HEK293 cells were observed (HEK293 [1]) | IC50 (HEK293 [1]) | cytotoxicity at 72 h, 50 µM [2] | IC50 (BxPC-3) | IC50 (AsPC-1) | early apoptosis (II) (HT29 cells) | viability at 19 µM (HT29 cells; Homo sapiens, HT-29, 3 or 12 h, control around 95.7%, read-out: cell viability (Annexin V-FITC/PI)) | cytotoxicity at 50 µM (H1975) | IC50 (H1975) | HEK293 cell proliferation (CFSE) (HEK293 [3])
1 | CCCCCCn1cnc2c(-c3ccc(OC(F)(F)F)cc3)nc(N3CCN(c4ccncc4)CC3)nc21 [Compound 4s, 9-Hexyl-2-(4-(pyridin-4-yl)piperazin-1-yl)-6-(4-(trifluoromethoxy)phenyl)-9H-purine] | totally inhibited the formation of colonies | did not affect the mRNA levels of GLI1 | 12% | 24% | above 50 µM | > 50 µM | < 50% | 4.1 ± 0.9 µM | 1.7 ± 0.05 µM | 64.6% | ~33.8% | 99 ± 0.2% | 1.5 ± 0.3 µM | no effect
2 | CS(=O)(=O)c1ccc(C(=O)Nc2ccc(Cl)c(-c3ccccn3)c2)c(Cl)c1 [Vismodegib, reference compound] | less effective than 4s | did not affect the mRNA levels of GLI1 | – | 10% | – | > 50 µM | < 50% | > 50 µM | > 50 µM | no statistically significant differences | – | 53 ± 1.2% | > 50 µM | less effect on reducing proliferation than 4s
